Values of other authors in patent publication US20010043957A1, “Lypolytic composition” (priority 2000, published 2001).

Assays:
[1] = group of animals
[2] = per day, most healthy people, caffeine and related methylxanthines

Compound | loss in body weight [1] | amount safely consumed without adverse reactions [2] | loss in body fat [1]
Cn1c(=O)c2c(ncn2C)n(C)c1=O [caffeine] | not significant loss in body weight | up to 200 mg | 
CN[C@@H](C)[C@H](O)c1ccccc1 [ephedrine] | 14% |  | 42%
